Measurements as given in PubChem BioAssay AID1259407 (Chemical Carcinogenesis Research Information System (CCRIS), 2018).
The source made the active and inactive calls. How the calls were made is not given here.

Test system: CCRIS mutagenicity, Ames/micronucleus/aberration tests
Assay: CCRIS mutagenicity studies
[1] = Test System: AMES SALMONELLA TYPHIMURIUM, Strain/Indicator: TA100, Metabolic Activation: RAT, LIVER, S-9, AROCLOR 1254, Method: STANDARD PLATE

`CCCCNC(=O)n1c(NC(=O)OC)nc2ccccc21` was tested, and the mutagenic call (End Point: IN VIVO CHROMOSOMAL ABERRATIONS, Test System: BONE MARROW CELLS, Species: MOUSE, Strain/Sex: SWISS/MALE, Route: DIET (ORAL)) was “active; positive at all dose levels (structural and ploidy changes, robertsonian translo”, the mutagenic call (Test System: AMES SALMONELLA TYPHIMURIUM, Strain/Indicator: TA97, Metabolic Activation: HAMSTER, LIVER, S-9, AROCLOR 1254 (10%), Method: PREINCUBATION) was “inactive; negative” and the mutagenic call (Test System: AMES SALMONELLA TYPHIMURIUM, Strain/Indicator: TA97, Metabolic Activation: HAMSTER, LIVER, S-9, AROCLOR 1254 (30%), Method: PREINCUBATION) was “inactive; negative”. For the same compound, the mutagenic call (Test System: AMES SALMONELLA TYPHIMURIUM, Strain/Indicator: TA97, Metabolic Activation: NONE, Method: PREINCUBATION) was “inactive; negative”, the mutagenic call (Test System: AMES SALMONELLA TYPHIMURIUM, Strain/Indicator: TA97, Metabolic Activation: RAT, LIVER, S-9, AROCLOR 1254 (10%), Method: PREINCUBATION) was “inactive; negative” and the mutagenic call (Test System: AMES SALMONELLA TYPHIMURIUM, Strain/Indicator: TA97, Metabolic Activation: RAT, LIVER, S-9, AROCLOR 1254 (30%), Method: PREINCUBATION) was “inactive; negative”. For the same compound, the mutagenic call (Test System: AMES SALMONELLA TYPHIMURIUM, Strain/Indicator: TA97A, Metabolic Activation: NONE, Method: STANDARD PLATE) was “inactive; negative”, the mutagenic call (Test System: AMES SALMONELLA TYPHIMURIUM, Strain/Indicator: TA97A, Metabolic Activation: PLANT, HOMOGENATE, S-14, Method: STANDARD PLATE) was “inactive; negative” and the mutagenic call (Test System: AMES SALMONELLA TYPHIMURIUM, Strain/Indicator: TA97A, Metabolic Activation: S-9, Method: STANDARD PLATE) was “inactive; negative”. The mutagenic call (Test System: AMES SALMONELLA TYPHIMURIUM, Strain/Indicator: TA98, Metabolic Activation: HAMSTER, LIVER, S-9, 1254 (10%), Method: PREINCUBATION) was “inactive; negative”, the mutagenic call (Test System: AMES SALMONELLA TYPHIMURIUM, Strain/Indicator: TA98, Metabolic Activation: HAMSTER, LIVER, S-9, AROCLOR 1254 (30%), Method: PREINCUBATION) was “inactive; negative” and the mutagenic call (Test System: AMES SALMONELLA TYPHIMURIUM, Strain/Indicator: TA98, Metabolic Activation: NONE, Method: PREINCUBATION) was “inactive; negative”. For the same compound, the mutagenic call (Test System: AMES SALMONELLA TYPHIMURIUM, Strain/Indicator: TA98, Metabolic Activation: PLANT, HOMOGENATE, S-14, Method: STANDARD PLATE) was “inactive; negative”, the mutagenic call (Test System: AMES SALMONELLA TYPHIMURIUM, Strain/Indicator: TA98, Metabolic Activation: RAT, LIVER, S-9, AROCLOR 1254 (10%), Method: PREINCUBATION) was “inactive; negative” and the mutagenic call (Test System: AMES SALMONELLA TYPHIMURIUM, Strain/Indicator: TA98, Metabolic Activation: RAT, LIVER, S-9, AROCLOR 1254 (30%), Method: PREINCUBATION) was “inactive; negative”. The mutagenic call (Test System: AMES SALMONELLA TYPHIMURIUM, Strain/Indicator: TA98, Metabolic Activation: RAT, LIVER, S-9, AROCLOR 1254, Method: STANDARD PLATE) was “inactive; negative”, the mutagenic call (Test System: AMES SALMONELLA TYPHIMURIUM, Strain/Indicator: TA98, Metabolic Activation: RAT, LIVER, S-9, AROCLOR, Method: STANDARD PLATE) was “inactive; negative” and the mutagenic call (Test System: AMES SALMONELLA TYPHIMURIUM, Strain/Indicator: TA98, Metabolic Activation: S-9, Method: STANDARD PLATE) was “inactive; negative”. For the same compound, the mutagenic call (Test System: AMES SALMONELLA TYPHIMURIUM, Strain/Indicator: TA100, Metabolic Activation: HAMSTER, LIVER, S-9, AROCLOR 1254 (10%), Method: PREINCUBATION) was “inactive; negative”, the mutagenic call (Test System: AMES SALMONELLA TYPHIMURIUM, Strain/Indicator: TA100, Metabolic Activation: HAMSTER, LIVER, S-9, AROCLOR 1254 (30%), Method: PREINCUBATION) was “inactive; negative” and the mutagenic call (Test System: AMES SALMONELLA TYPHIMURIUM, Strain/Indicator: TA100, Metabolic Activation: NONE, Method: PREINCUBATION) was “inactive; negative”. The mutagenic call (Test System: AMES SALMONELLA TYPHIMURIUM, Strain/Indicator: TA100, Metabolic Activation: PLANT, HOMOGENATE, S-14, Method: STANDARD PLATE) was “inactive; negative”, the mutagenic call (Test System: AMES SALMONELLA TYPHIMURIUM, Strain/Indicator: TA100, Metabolic Activation: RAT, LIVER, S-9, AROCLOR 1254 (10%), Method: PREINCUBATION) was “inactive; negative” and the mutagenic call (Test System: AMES SALMONELLA TYPHIMURIUM, Strain/Indicator: TA100, Metabolic Activation: RAT, LIVER, S-9, AROCLOR 1254 (30%), Method: PREINCUBATION) was “inactive; negative”. For the same compound, the mutagenic call [1] was “inactive; negative”, the mutagenic call (Test System: AMES SALMONELLA TYPHIMURIUM, Strain/Indicator: TA100, Metabolic Activation: RAT, LIVER, S-9, AROCLOR, Method: STANDARD PLATE) was “inactive; negative” and the mutagenic call (Test System: AMES SALMONELLA TYPHIMURIUM, Strain/Indicator: TA100, Metabolic Activation: S-9, Method: STANDARD PLATE) was “inactive; negative”. The mutagenic call (Test System: AMES SALMONELLA TYPHIMURIUM, Strain/Indicator: TA1535, Metabolic Activation: HAMSTER, LIVER, S-9, AROCLOR 1254 (10%), Method: PREINCUBATION) was “inactive; negative”, the mutagenic call (Test System: AMES SALMONELLA TYPHIMURIUM, Strain/Indicator: TA1535, Metabolic Activation: HAMSTER, LIVER, S-9, AROCLOR 1254 (30%), Method: PREINCUBATION) was “inactive; negative” and the mutagenic call (Test System: AMES SALMONELLA TYPHIMURIUM, Strain/Indicator: TA1535, Metabolic Activation: NONE, Method: PREINCUBATION) was “inactive; negative”. For the same compound, the mutagenic call (Test System: AMES SALMONELLA TYPHIMURIUM, Strain/Indicator: TA1535, Metabolic Activation: PLANT, HOMOGENATE, S-14, Method: STANDARD PLATE) was “inactive; negative”, the mutagenic call (Test System: AMES SALMONELLA TYPHIMURIUM, Strain/Indicator: TA1535, Metabolic Activation: RAT, LIVER, S-9, AROCLOR 1254 (10%), Method: PREINCUBATION) was “inactive; negative” and the mutagenic call (Test System: AMES SALMONELLA TYPHIMURIUM, Strain/Indicator: TA1535, Metabolic Activation: RAT, LIVER, S-9, AROCLOR 1254 (30%), Method: PREINCUBATION) was “inactive; negative”. The mutagenic call (Test System: AMES SALMONELLA TYPHIMURIUM, Strain/Indicator: TA1535, Metabolic Activation: RAT, LIVER, S-9, AROCLOR 1254, Method: STANDARD PLATE) was “inactive; negative”, the mutagenic call (Test System: AMES SALMONELLA TYPHIMURIUM, Strain/Indicator: TA1535, Metabolic Activation: RAT, LIVER, S-9, AROCLOR, Method: STANDARD PLATE) was “inactive; negative” and the mutagenic call (Test System: AMES SALMONELLA TYPHIMURIUM, Strain/Indicator: TA1535, Metabolic Activation: S-9, Method: STANDARD PLATE) was “inactive; negative”. For the same compound, the mutagenic call (Test System: AMES SALMONELLA TYPHIMURIUM, Strain/Indicator: TA1537, Metabolic Activation: HAMSTER, LIVER, S-9, AROCLOR 1254 (10%), Method: PREINCUBATION) was “inactive; negative”, the mutagenic call (Test System: AMES SALMONELLA TYPHIMURIUM, Strain/Indicator: TA1537, Metabolic Activation: HAMSTER, LIVER, S-9, AROCLOR 1254 (30%), Method: PREINCUBATION) was “inactive; negative” and the mutagenic call (Test System: AMES SALMONELLA TYPHIMURIUM, Strain/Indicator: TA1537, Metabolic Activation: NONE, Method: PREINCUBATION) was “inactive; negative”. For the same compound, the mutagenic call (Test System: AMES SALMONELLA TYPHIMURIUM, Strain/Indicator: TA1537, Metabolic Activation: NONE, Method: STANDARD PLATE) was “inactive; negative”, the mutagenic call (Test System: AMES SALMONELLA TYPHIMURIUM, Strain/Indicator: TA1537, Metabolic Activation: RAT, LIVER, S-9, AROCLOR 1254 (10%), Method: PREINCUBATION) was “inactive; negative” and the mutagenic call (Test System: AMES SALMONELLA TYPHIMURIUM, Strain/Indicator: TA1537, Metabolic Activation: RAT, LIVER, S-9, AROCLOR 1254 (30%), Method: PREINCUBATION) was “inactive; negative”. The mutagenic call (Test System: AMES SALMONELLA TYPHIMURIUM, Strain/Indicator: TA1537, Metabolic Activation: RAT, LIVER, S-9, AROCLOR 1254, Method: STANDARD PLATE) was “inactive; negative”, the mutagenic call (Test System: AMES SALMONELLA TYPHIMURIUM, Strain/Indicator: TA1537, Metabolic Activation: RAT, LIVER, S-9, AROCLOR, Method: STANDARD PLATE) was “inactive; negative” and the mutagenic call (Test System: E. COLI, Strain/Indicator: WP2 UVRA, Metabolic Activation: NONE, Method: FLUCTUATION) was “active; positive”.

With `NN(c1ccccc1)c1ccccc1` the mutagenic call (Test System: AMES SALMONELLA TYPHIMURIUM, Strain/Indicator: TA97, Metabolic Activation: NONE, Method: STANDARD PLATE) was “inactive; negative”, the mutagenic call (Test System: AMES SALMONELLA TYPHIMURIUM, Strain/Indicator: TA97, Metabolic Activation: RAT, LIVER, S-9, AROCLOR 1254, Method: STANDARD PLATE) was “inactive; negative” and the mutagenic call (Test System: AMES SALMONELLA TYPHIMURIUM, Strain/Indicator: TA100, Metabolic Activation: NONE, Method: STANDARD PLATE) was “inactive; negative”. The mutagenic call [1] was “inactive; negative”.
